± gives the expanded uncertainty stated by the source.
Tests used:
[1] = 101.33 kPa, Liquid; for mass density: Vibrating tube method; for viscosity: Concentric cylinders viscometry
[2] = refractive index (Na D-line) (dimensionless); conditions: 101.33 kPa, Liquid, Standard Abbe refractometry

| Structure (SMILES) | mass density ([1]; 293.15 K) [kg/m3] | mass density ([1]; 298.15 K) [kg/m3] | viscosity ([1]; 303.15 K) [mPa·s] | mass density ([1]; 303.15 K) [kg/m3] | viscosity ([1]; 308.15 K) [mPa·s] | mass density ([1]; 308.15 K) [kg/m3] | viscosity ([1]; 313.15 K) [mPa·s] | mass density ([1]; 313.15 K) [kg/m3] | viscosity ([1]; 318.15 K) [mPa·s] | mass density ([1]; 318.15 K) [kg/m3] | viscosity ([1]; 323.15 K) [mPa·s] | mass density ([1]; 323.15 K) [kg/m3] | viscosity ([1]; 328.15 K) [mPa·s] | mass density ([1]; 328.15 K) [kg/m3] | viscosity ([1]; 333.15 K) [mPa·s] | mass density ([1]; 333.15 K) [kg/m3] | viscosity ([1]; 338.15 K) [mPa·s] | mass density ([1]; 338.15 K) [kg/m3] | viscosity ([1]; 343.15 K) [mPa·s] | mass density ([1]; 343.15 K) [kg/m3] | other results |
| --- | --- | --- | --- | --- | --- | --- | --- | --- | --- | --- | --- | --- | --- | --- | --- | --- | --- | --- | --- | --- | --- |
| CCCCn1cc[n+](CCC#N)c1.[Br-] [1-butyl-3-(2-cyanoethyl)-1H-imidazolium bromide] | 1308.5 ± 1.1 | 1304.7 ± 1.1 | 11304 ± 830 | 1301.1 ± 1.1 | 7058.4 ± 470 | 1297.7 ± 1.1 | 4502.1 ± 270 | 1294.3 ± 1.1 | 2953 ± 160 | 1291 ± 1.1 | 1989.7 ± 99 | 1287.6 ± 1.1 | 1377.5 ± 62 | 1284.4 ± 1.1 | 975.6 ± 39 | 1281.2 ± 1.1 | 705.8 ± 25 | 1277.9 ± 1.1 | 520.5 ± 17 | 1274.7 ± 1.1 | viscosity ([1]; 298.15 K): 19103 ± 1500 mPa·s; viscosity ([1]; 348.15 K): 390.7 ± 11 mPa·s; mass density ([1]; 348.15 K): 1271.4 ± 1.1 kg/m3; viscosity ([1]; 353.15 K): 298.1 ± 7.4 mPa·s; mass density ([1]; 353.15 K): 1268.2 ± 1.1 kg/m3; refractive index ([2]; 298.15 K): 1.5454 ± 0.00037; refractive index ([2]; 303.15 K): 1.54454 ± 0.00037; refractive index ([2]; 308.15 K): 1.54346 ± 0.00037; refractive index ([2]; 313.15 K): 1.54229 ± 0.00037; refractive index ([2]; 318.15 K): 1.54111 ± 0.00037; refractive index ([2]; 323.15 K): 1.53992 ± 0.00037; refractive index ([2]; 328.15 K): 1.53869 ± 0.00037; refractive index ([2]; 333.15 K): 1.53748 ± 0.00037 |
| CCCCCCn1cc[n+](CCC#N)c1.[Br-] [3-(2-cyanoethyl)-1-hexyl-1H-imidazolium bromide] | 1232.4 ± 1.1 | 1229 ± 1.1 | 15893 ± 1200 | 1225.6 ± 1.1 | 9029.8 ± 630 | 1222.3 ± 1.1 | 5610.4 ± 360 | 1219 ± 1.1 | 3602.1 ± 210 | 1215.7 ± 1.1 | 2379.9 ± 120 | 1212.4 ± 1.1 | 1618.2 ± 76 | 1209.1 ± 1.1 | 1128.4 ± 48 | 1205.8 ± 1.1 | 805.1 ± 30 | 1202.5 ± 1.1 | 639.6 ± 22 | 1199.2 ± 1.1 | viscosity ([1]; 348.15 K): 465.7 ± 14 mPa·s; mass density ([1]; 348.15 K): 1195.9 ± 1.1 kg/m3; viscosity ([1]; 353.15 K): 359.3 ± 9.7 mPa·s; mass density ([1]; 353.15 K): 1192.7 ± 1.1 kg/m3; refractive index ([2]; 298.15 K): 1.52872 ± 0.00037; refractive index ([2]; 303.15 K): 1.52823 ± 0.00037; refractive index ([2]; 308.15 K): 1.52719 ± 0.00037; refractive index ([2]; 313.15 K): 1.526 ± 0.00037; refractive index ([2]; 318.15 K): 1.52479 ± 0.00037; refractive index ([2]; 323.15 K): 1.52354 ± 0.00037; refractive index ([2]; 328.15 K): 1.52229 ± 0.00037; refractive index ([2]; 333.15 K): 1.52117 ± 0.00037 |
